Results reported in ChEMBL document CHEMBL3885881, “DrugMatrix”.

Species: Rattus norvegicus
Experiment: DrugMatrix - Regimen: Daily Repeat
Type: toxicity, organism-based, Sprague-Dawley
Set-up: regimen Daily Repeat, gender Male, age 6-8 weeks
Details: in vivo, po, route oral GAVAGE, vehicle 100 % WATER; for ERYTHROCYTE COUNT / HEMATOCRIT / HEMOGLOBIN / LEUKOCYTE COUNT / MEAN CORPUSCULAR HEMOGLOBIN / MEAN CORPUSCULAR HEMOGLOBIN CONCENTRATION / MEAN CORPUSCULAR VOLUME: tissue Blood; for ALKALINE PHOSPHATASE / ASPARTATE AMINOTRANSFERASE / BLOOD UREA NITROGEN / CARBON DIOXIDE / CHLORIDE / CHOLESTEROL / CREATINE PHOSPHOKINASE / CREATININE / GLUCOSE / LACTATE DEHYDROGENASE / LIPASE / PHOSPHORUS / POTASSIUM / SODIUM / TOTAL BILIRUBIN / TOTAL PROTEIN / URIC ACID: tissue Plasma
[1] = 0 mg/kg, 72 h, dose level Control, time 3 day
[2] = 0 mg/kg, 120 h, dose level Control, time 5 day
[3] = 58 mg/kg, 72 h, dose level Low, time 3 day
[4] = 58 mg/kg, 120 h, dose level Low, time 5 day

`C#Cc1cccc(Nc2ncnc3cc(OCCOC)c(OCCOC)cc23)c1` [ERLOTINIB] was tested, and the “ERYTHROCYTE COUNT” value [1] was 6.09 x10E6/uL, the HEMATOCRIT [1] was 42.62% and the HEMOGLOBIN [1] was 13.07 G/DL. For the same molecule, the “LEUKOCYTE COUNT” value [1] was 13.95 x10E3/uL, the “MEAN CORPUSCULAR HEMOGLOBIN” value [1] was 21.47 pg and the “MEAN CORPUSCULAR HEMOGLOBIN CONCENTRATION” value [1] was 30.62 G/DL. The “MEAN CORPUSCULAR VOLUME” value [1] was 70.05 fL, the “ALKALINE PHOSPHATASE” value [1] was 369 u/L and the “ASPARTATE AMINOTRANSFERASE” value [1] was 86.17 u/L. The “BLOOD UREA NITROGEN” value [1] was 16.33 mg/dL, the “CARBON DIOXIDE” value [1] was 37.33 mmol/L and the CHLORIDE [1] was 104.83 MEQ/L. The CHOLESTEROL [1] was 79.83 mg/dL, the “CREATINE PHOSPHOKINASE” value [1] was 392.83 u/L and the CREATININE [1] was 0.68 mg/dL. The GLUCOSE [1] was 153.33 mg/dL, the “LACTATE DEHYDROGENASE” value [1] was 426.17 u/L and the LIPASE [1] was 11.67 u/L. It also gave a PHOSPHORUS [1] of 11 mg/dL, a POTASSIUM [1] of 6.72 MEQ/L and an SODIUM [1] of 146.67 MEQ/L. The “TOTAL BILIRUBIN” value [1] was 0.55 mg/dL, the “TOTAL PROTEIN” value [1] was 6.32 G/DL and the “URIC ACID” value [1] was 0.0167 mg/dL. The “ERYTHROCYTE COUNT” value [2] was 6.93 x10E6/uL, the HEMATOCRIT [2] was 46.82% and the HEMOGLOBIN [2] was 14.23 G/DL. For the same molecule, the “LEUKOCYTE COUNT” value [2] was 13.43 x10E3/uL, the “MEAN CORPUSCULAR HEMOGLOBIN” value [2] was 20.55 pg and the “MEAN CORPUSCULAR HEMOGLOBIN CONCENTRATION” value [2] was 30.38 G/DL. The “MEAN CORPUSCULAR VOLUME” value [2] was 67.62 fL, the “ALKALINE PHOSPHATASE” value [2] was 417.83 u/L and the “ASPARTATE AMINOTRANSFERASE” value [2] was 83 u/L. For the same molecule, the “BLOOD UREA NITROGEN” value [2] was 15.33 mg/dL, the “CARBON DIOXIDE” value [2] was 38.83 mmol/L and the CHLORIDE [2] was 98.17 MEQ/L. For the same molecule, the CHOLESTEROL [2] was 66.83 mg/dL, the “CREATINE PHOSPHOKINASE” value [2] was 383.17 u/L and the CREATININE [2] was 0.72 mg/dL. For the same molecule, the GLUCOSE [2] was 156.5 mg/dL, the “LACTATE DEHYDROGENASE” value [2] was 519.67 u/L and the LIPASE [2] was 4.83 u/L. The PHOSPHORUS [2] was 11.07 mg/dL, the POTASSIUM [2] was 6.03 MEQ/L and the SODIUM [2] was 138 MEQ/L. The “TOTAL BILIRUBIN” value [2] was 0.55 mg/dL, the “TOTAL PROTEIN” value [2] was 6.3 G/DL and the “URIC ACID” value [2] was 0.0833 mg/dL. For the same molecule, the “ERYTHROCYTE COUNT” value [3] was 7.23 x10E6/uL, the HEMATOCRIT [3] was 47.6% and the HEMOGLOBIN [3] was 14.6 G/DL. For the same molecule, the “LEUKOCYTE COUNT” value [3] was 17.02 x10E3/uL, the “MEAN CORPUSCULAR HEMOGLOBIN” value [3] was 20.2 pg and the “MEAN CORPUSCULAR HEMOGLOBIN CONCENTRATION” value [3] was 30.77 G/DL. For the same molecule, the “MEAN CORPUSCULAR VOLUME” value [3] was 265.73 fL, the “ALKALINE PHOSPHATASE” value [3] was 184.67 u/L and the “ASPARTATE AMINOTRANSFERASE” value [3] was 86.33 u/L. The “BLOOD UREA NITROGEN” value [3] was 16 mg/dL, the “CARBON DIOXIDE” value [3] was 39 mmol/L and the CHLORIDE [3] was 107.67 MEQ/L. For the same molecule, the CHOLESTEROL [3] was 93.67 mg/dL, the “CREATINE PHOSPHOKINASE” value [3] was 293 u/L and the CREATININE [3] was 0.73 mg/dL. For the same molecule, the GLUCOSE [3] was 141.33 mg/dL, the “LACTATE DEHYDROGENASE” value [3] was 441.67 u/L and the LIPASE [3] was 21.33 u/L. For the same molecule, the PHOSPHORUS [3] was 10 mg/dL, the POTASSIUM [3] was 6.7 MEQ/L and the SODIUM [3] was 148.67 MEQ/L. For the same molecule, the “TOTAL BILIRUBIN” value [3] was 0.73 mg/dL, the “TOTAL PROTEIN” value [3] was 5.13 G/DL and the “URIC ACID” value [3] was 0 mg/dL. The “ERYTHROCYTE COUNT” value [4] was 7.1 x10E6/uL, the HEMATOCRIT [4] was 46.07% and the HEMOGLOBIN [4] was 13.83 G/DL. The “LEUKOCYTE COUNT” value [4] was 18.86 x10E3/uL, the “MEAN CORPUSCULAR HEMOGLOBIN” value [4] was 19.47 pg and the “MEAN CORPUSCULAR HEMOGLOBIN CONCENTRATION” value [4] was 29.97 G/DL. For the same molecule, the “MEAN CORPUSCULAR VOLUME” value [4] was 64.9 fL, the “ALKALINE PHOSPHATASE” value [4] was 222 u/L and the “ASPARTATE AMINOTRANSFERASE” value [4] was 105.33 u/L. The “BLOOD UREA NITROGEN” value [4] was 14.67 mg/dL, the “CARBON DIOXIDE” value [4] was 38.67 mmol/L and the CHLORIDE [4] was 100.33 MEQ/L. The CHOLESTEROL [4] was 81.33 mg/dL, the “CREATINE PHOSPHOKINASE” value [4] was 332 u/L and the CREATININE [4] was 0.73 mg/dL. The GLUCOSE [4] was 135 mg/dL, the “LACTATE DEHYDROGENASE” value [4] was 477.67 u/L and the LIPASE [4] was 16.67 u/L. The PHOSPHORUS [4] was 11.53 mg/dL, the POTASSIUM [4] was 6.07 MEQ/L and the SODIUM [4] was 141 MEQ/L. The “TOTAL BILIRUBIN” value [4] was 0.5 mg/dL, the “TOTAL PROTEIN” value [4] was 5.57 G/DL and the “URIC ACID” value [4] was 0.1 mg/dL.
